Source: US6518012B1, “Method for regulating the expression of MHC antigens and CD40 by inhibitors of histone deacetylation” (Health Research, Inc., priority 1999, dated 2003)

Columns and labels:
[1] = tested on: MHC class II protein on the cell surface; assay: Cell surface MHC class II protein by flow cytometry on SK-N-MC; format: cell-based, human; conditions: for expression of MHC class II protein on the cell surface: flow cytometry, 50 nM TSA for 48 hours, IFNγ 100 U/ml same time
CIITA mRNA = CIITA mRNA by RT-PCR and real-time PCR in mouse tumor cells Colon 26 and J558; format: cell-based; conditions: for CIITA fold increase / expression of CIITA: Colon 26; for CIITA fold increase: real-time PCR; for expression of CIITA: standard RT-PCR at 35 cycles; for CIITA mRNA activation: titration with different concentrations of TSA for 12 hours, RT-PCR and real-time PCR
Experimental: To determine the effect of DAIs on HLA-DRα mRNA, cytoplasmic RNA was isolated from untreated and treated human trophoblast cell line JAR using standard techniques (RNeasy System from Qiagen). Standard PCR was performed using primers for DR and CIITA (Murphy et al., 1998, Reprod Dev., Chin et al., 1994, Immunity 1:687-697). Other primers used included human and mouse GAPDH (Clontech) and forward primer 5′-[…]-3′ (SEQ ID NO:25) and reverse primer 5′-[…]-3′ (SEQ ID NO:26) for mouse CIITA. PCR products were amplified with GOLD Taq for 10 min at 95° C., then 95° C. for 30 sec, 60° C. for 60 sec (25-45 cycles), then an extension at 60° C. for 10 min.
In order to obtain more quantitative information on fold changes in DR and CIITA after treatment with the deacetylase inhibitors, a real time fluorescence technique capable of quantitating low copy numbers of transcripts was carried out as follows. Oligonucleotide primers and TaqMan 5′-6-FAM and 3′-TAMRA-labeled probes were synthesized in the RPCI Biopolymer Facility. Primer and probe sequences are listed under Sequence Listing and also in FIG. 9. Sequences were designed using standard software (PrimerExpress software, PE Biosystems) except for human GAPDH.
Realtime PCR reactions contained TaqMan Universal PCR Master Mix (PE Biosystems), primers at 300 nM, and probes at optimal concentrations (150-225 nM depending on gene). Reactions were carried out on an ABI PRISM 7700 Sequence Detection System (PE Biosystems). Cycling conditions were 50° C. for 2 min, 95° C. for 10 min, then 60 cycles of 95° C. for 15 sec, 60° C. for 1 min. PCR samples were run in triplicate. The detection system and quantitative PCR was carried out as described by Williamson et al. (1995, Genet Res. 65:83-93). The threshold cycle number CT corresponded to the cycle number, at which the fluorescent emission reaches 10 standard deviations above the mean fluorescent emission, measured during the early ‘baseline’ cycles of the PCR. The CT values for triplicates were averaged and normalized to GAPDH levels. […] In such cases, in order to calculate a minimum fold change for other samples in the same group, the CT value was arbitrarily set at 40. […] Assuming reverse transcription efficiencies were approximately the same for each sample, relative amounts of mRNA using the comparative CT method. Fold changes in mRNA levels were calculated as 2^x where x=the difference between normalized CT values of the control and experimental samples.
(§1) To determine if the effect of DAIs on MHC class II was manifested in other tumors and in different species, the effect of TSA was tested on four commonly used mouse tumor models: the SaI fibrosarcoma, the Colon 26 adenocarcinoma, the J558 plasmacytoma and the P815 mastocytoma. TSA induced class II in all four mouse tumors examined, while the effects of IFNγ were variable (FIG. 4). Data presented for each cell line represents optimal incubation time and concentration of TSA and is compared with 100 U/ml of IFNγ at the same time point. Numbers over bars represents fold changes. […] Colon 26 and J558 that differed strikingly in their reactivity to IFNγ were selected for further evaluation. RT-PCR and real time PCR was used to examine induction of CIITA and IAα by TSA and IFNγ. A20, a constitutively positive B cell line was used as a positive control. The results are shown in FIGS. 5A-D. The numbers over bars represent fold changes. […] Since the classical IFNγ inducible genes IRF-1 and GBP as well as MHC class I mRNA were not induced by IFNγ in J558 (data not shown), this cell line may have a signaling defect in the IFNγ pathway. Unexpectedly however, and unlike either the MC or Colon 26 cells, TSA induced both CIITA (102-fold) and Iα (537-fold) in J558 as shown in FIGS. 5B and 5D.

[2] = tested on: IRF-1, GBP and MHC class I mRNA; assay: mRNA of IRF-1, GBP and MHC class I in J558; format: cell-based, mouse; conditions: IFNγ, data not shown
Experimental: as §1

Compound | expression of MHC class II protein on the cell surface [1] | CIITA fold increase (CIITA mRNA) | expression of CIITA (CIITA mRNA) | CIITA mRNA activation (CIITA mRNA; J558) | IRF-1, GBP and MHC class I mRNA induction [2] | cells positive for class II expression ([1]; TSA concentration used in FIG. 8 (50 nM for 48 hours)) [%] | CIITA fold induction (CIITA mRNA; J558, RT-PCR and real-time PCR (FIGS. 5B and 5D)) [fold]
IFNγ: gamma-interferon, cytokine used as comparator at 100 U/ml | did not induce | 20 fold | induced | failed to activate | not induced | – | –
CC(/C=C/C(=O)NO)=C\[C@@H](C)C(=O)c1ccc(N(C)C)cc1 [TSA, Trichostatin A] | significantly induced | absence | not detected | induced | – | 29 | 102
